Results as given in the supplement of paper PMC11208160.

Experiment: recombinant UMI read abundance after kanamycin selection (control-corrected) (log10(CPM+1)); higher = more efficient recombination; extreme values may be limits of the assay; sequences stand for … in AGTGCAGAGAAAATCGGCCAGTTTTCTCTGCCTGCAGTCCGCATGCCGTGGGACCCCTTGGGTTCTAACCTGTTGCCTAGATTTATGCAGCGGACTGCCTTTCTCCCAAAGTGATAAACCGG…AGGTTGGTTTCACT; site = the 11-nt donor
Summary of the method: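 Each donor and donor-binding-loop pair was tracked by a 12-nt UMI on a plasmid carrying a promoterless kanamycin gene. With a second plasmid supplying a fixed target and T7-inducible IS621 bridge recombinase, the pool was plated in Escherichia coli on IPTG (0.07 mM) plus kanamycin or unselected. Sequencing of recombinant UMIs across the donor–target junction gave counts expressed as log10(CPM+1) after replicate averaging and control-derived scaling.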
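Note: IS621 bridge recombinase in Escherichia coli cells against a fixed T5 target plasmid.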

| Sequence | recombinant UMI read abundance (log10) |
| --- | --- |
| TCAAACTCATGGACCGGTTTTCCCGGTAATCCGTATTTGCA (site TCACACTCTTG) | 1.25 |
| TCAAACTCATGGACCGGTTTTCCCGGTAATCCGTATTTGCA (site TCAGACTCTTG) | 0 |
| TCAAACTCATGGACCGGTTTTCCCGGTAATCCGTATTTGCA (site TCATACTCTTG) | 1.92 |
| TCAAAGCCATGGACCGGTTTTCCCGGTAATCCGTATTTGAT (site TCAAAGCCTAT) | 0.324 |
| TCAACCCCATGGACCGGTTTTCCCGGTAATCCGTATTTGTG (site TCAACCCCTCA) | 0.00442 |
| TCAAGTTCATGGACCGGTTTTCCCGGTAATCCGTATTTGTC (site TCAAGTTCTGA) | 2 |
| TCAATCTCATGGACCGGTTTTCCCGGTAATCCGTATTTGGT (site TCAATCTCTAC) | 1.11 |
| TCAATTGCATGGACCGGTTTTCCCGGTAATCCGTATTTGCG (site TCAATTGCTCG) | 1.52 |
| TCACCGCCATGGACCGGTTTTCCCGGTAATCCGTATTTGGG (site TCACCGCCTCC) | 0.0301 |
| TCACCTTCATGGACCGGTTTTCCCGGTAATCCGTATTTGTT (site TCACCTTCTAA) | 0.00377 |
| TCACGACCATGGACCGGTTTTCCCGGTAATCCGTATTTGCT (site TCACGACCTAG) | 0 |
| TCACGAGCATGGACCGGTTTTCCCGGTAATCCGTATTTGCC (site TCACGAGCTGG) | 0.952 |
| TCACGCGCATGGACCGGTTTTCCCGGTAATCCGTATTTGAA (site TCACGCGCTTT) | 1.05 |
| TCAGAATCATGGACCGGTTTTCCCGGTAATCCGTATTTGCG (site TCAGAATCTCG) | 2.57 |
| TCAGATACATGGACCGGTTTTCCCGGTAATCCGTATTTGCG (site TCAGAAACTCG) | 0 |
| TCAGATACATGGACCGGTTTTCCCGGTAATCCGTATTTGCG (site TCAGACACTCG) | 0.812 |
| TCAGATACATGGACCGGTTTTCCCGGTAATCCGTATTTGCG (site TCAGAGACTCG) | 0.00723 |
| TCAGATACATGGACCGGTTTTCCCGGTAATCCGTATTTGCG (site TCAGATACTCG) | 1.33 |
| TCAGCTACATGGACCGGTTTTCCCGGTAATCCGTATTTGAG (site TCAGCTACTCT) | 0.878 |
| TCAGCTCCATGGACCGGTTTTCCCGGTAATCCGTATTTGGC (site TCAGCTCCTGC) | 0.823 |
| TCAGGCGCATGGACCGGTTTTCCCGGTAATCCGTATTTGGT (site TCAGGCGCTAC) | 0.385 |
| TCAGGTCCATGGACCGGTTTTCCCGGTAATCCGTATTTGAT (site TCAGGTCCTAT) | 1.68 |
| TCAGTGTCATGGACCGGTTTTCCCGGTAATCCGTATTTGCT (site TCAGTGTCTAG) | 2.58 |
| TCATAATCATGGACCGGTTTTCCCGGTAATCCGTATTTGCA (site TCATAATCTTG) | 2.3 |
| TCATAATCATGGACCGGTTTTCCCGGTAATCCGTATTTGCA (site TCATACTCTTG) | 0.606 |

| Sequence | recombinant UMI read abundance (log10) |
| --- | --- |
| TCATAATCATGGACCGGTTTTCCCGGTAATCCGTATTTGCA (site TCATAGTCTTG) | 1.06 |
| TCATAATCATGGACCGGTTTTCCCGGTAATCCGTATTTGCA (site TCATATTCTTG) | 0.925 |
| TCATACTCATGGACCGGTTTTCCCGGTAATCCGTATTTGAA (site TCATACTCTTA) | 0 |
| TCATACTCATGGACCGGTTTTCCCGGTAATCCGTATTTGAA (site TCATACTCTTC) | 0.0134 |
| TCATACTCATGGACCGGTTTTCCCGGTAATCCGTATTTGAA (site TCATACTCTTG) | 0 |
| TCATACTCATGGACCGGTTTTCCCGGTAATCCGTATTTGAA (site TCATACTCTTT) | 1.72 |
| TCATATTCATGGACCGGTTTTCCCGGTAATCCGTATTTGCA (site TCATAATCTTG) | 1.5 |
| TCATATTCATGGACCGGTTTTCCCGGTAATCCGTATTTGCA (site TCATACTCTTG) | 1.3 |
| TCATATTCATGGACCGGTTTTCCCGGTAATCCGTATTTGCA (site TCATAGTCTTG) | 0.00995 |
| TCATATTCATGGACCGGTTTTCCCGGTAATCCGTATTTGCA (site TCATATTCTTG) | 0.476 |
| TCATCAACATGGACCGGTTTTCCCGGTAATCCGTATTTGGT (site TCATCAACTAC) | 0.0136 |
| TCATCCTCATGGACCGGTTTTCCCGGTAATCCGTATTTGCA (site TCATACTCTTG) | 0.933 |
| TCATCCTCATGGACCGGTTTTCCCGGTAATCCGTATTTGCA (site TCATCCTCTTG) | 0.741 |
| TCATCCTCATGGACCGGTTTTCCCGGTAATCCGTATTTGCA (site TCATGCTCTTG) | 0.00381 |
| TCATCCTCATGGACCGGTTTTCCCGGTAATCCGTATTTGCA (site TCATTCTCTTG) | 0 |
| TCATCCTCATGGACCGGTTTTCCCGGTAATCCGTATTTGGC (site TCATCCTCTGC) | 0 |
| TCATGCTCATGGACCGGTTTTCCCGGTAATCCGTATTTGCA (site TCATACTCTTG) | 0.466 |
| TCATGCTCATGGACCGGTTTTCCCGGTAATCCGTATTTGCA (site TCATCCTCTTG) | 0 |
| TCATGCTCATGGACCGGTTTTCCCGGTAATCCGTATTTGCA (site TCATGCTCTTG) | 0.764 |
| TCATGCTCATGGACCGGTTTTCCCGGTAATCCGTATTTGCA (site TCATTCTCTTG) | 0 |
| TCCAAATCATGGACCGGTTTTCCCGGTAATCCGTATTTGCC (site TCCAAATCTGG) | 0 |
| TCCAAATCATGGACCGGTTTTCCCGGTAATCCGTATTTGCC (site TCCAACTCTGG) | 0 |
| TCCAAATCATGGACCGGTTTTCCCGGTAATCCGTATTTGCC (site TCCAAGTCTGG) | 0 |
| TCCAAATCATGGACCGGTTTTCCCGGTAATCCGTATTTGCC (site TCCAATTCTGG) | 0 |
| TCCAACGCATGGACCGGTTTTCCCGGTAATCCGTATTTGCG (site TCCAACGCTCG) | 0.0127 |

| Sequence | recombinant UMI read abundance (log10) |
| --- | --- |
| TCCAACGCATGGACCGGTTTTCCCGGTAATCCGTATTTGCG (site TCCACCGCTCG) | 0 |
| TCCAACGCATGGACCGGTTTTCCCGGTAATCCGTATTTGCG (site TCCAGCGCTCG) | 0 |
| TCCAACGCATGGACCGGTTTTCCCGGTAATCCGTATTTGCG (site TCCATCGCTCG) | 0.00881 |
| TCCAAGGCATGGACCGGTTTTCCCGGTAATCCGTATTTGTC (site TCCAAGGCTGA) | 0 |
| TCCAATGCATGGACCGGTTTTCCCGGTAATCCGTATTTGCC (site TCCAATACTGG) | 0 |
| TCCAATGCATGGACCGGTTTTCCCGGTAATCCGTATTTGCC (site TCCAATCCTGG) | 0 |
| TCCAATGCATGGACCGGTTTTCCCGGTAATCCGTATTTGCC (site TCCAATGCTGG) | 0 |
| TCCAATGCATGGACCGGTTTTCCCGGTAATCCGTATTTGCC (site TCCAATTCTGG) | 0 |
| TCCAATTCATGGACCGGTTTTCCCGGTAATCCGTATTTGCA (site TCCAATTCTAG) | 0 |
| TCCAATTCATGGACCGGTTTTCCCGGTAATCCGTATTTGCA (site TCCAATTCTCG) | 0 |
| TCCAATTCATGGACCGGTTTTCCCGGTAATCCGTATTTGCA (site TCCAATTCTGG) | 0 |
| TCCAATTCATGGACCGGTTTTCCCGGTAATCCGTATTTGCA (site TCCAATTCTTG) | 0 |
| TCCAATTCATGGACCGGTTTTCCCGGTAATCCGTATTTGCG (site TCCAATTCTAG) | 0 |
| TCCAATTCATGGACCGGTTTTCCCGGTAATCCGTATTTGCG (site TCCAATTCTCG) | 0 |
| TCCAATTCATGGACCGGTTTTCCCGGTAATCCGTATTTGCG (site TCCAATTCTGG) | 0 |
| TCCAATTCATGGACCGGTTTTCCCGGTAATCCGTATTTGCG (site TCCAATTCTTG) | 0 |
| TCCACCACATGGACCGGTTTTCCCGGTAATCCGTATTTGCG (site TCCACCACTCG) | 0.0102 |
| TCCACCACATGGACCGGTTTTCCCGGTAATCCGTATTTGCG (site TCCACCCCTCG) | 0.0154 |
| TCCACCACATGGACCGGTTTTCCCGGTAATCCGTATTTGCG (site TCCACCGCTCG) | 0 |
| TCCACCACATGGACCGGTTTTCCCGGTAATCCGTATTTGCG (site TCCACCTCTCG) | 0.00608 |
| TCCACCGCATGGACCGGTTTTCCCGGTAATCCGTATTTGCG (site ACCACCGCTCG) | 0.0347 |
| TCCACCGCATGGACCGGTTTTCCCGGTAATCCGTATTTGCG (site CCCACCGCTCG) | 0.0205 |
| TCCACCGCATGGACCGGTTTTCCCGGTAATCCGTATTTGCG (site GCCACCGCTCG) | 0.0147 |
| TCCACCGCATGGACCGGTTTTCCCGGTAATCCGTATTTGCG (site TACACCGCTCG) | 0.0145 |
| TCCACCGCATGGACCGGTTTTCCCGGTAATCCGTATTTGCG (site TCAACCGCTCG) | 0.00833 |
